Target: Ubiquitin carboxyl-terminal hydrolase 1/WD repeat-containing protein 48 (Homo sapiens, UniProt O94782+Q8TAF3)
Assay: Inhibition of human USP1/UAF1 complex using Ub-Rho as substrate by qHTS assay

Chain of Ubiquitin carboxyl-terminal hydrolase 1/WD repeat-containing protein 48 (O94782 whole entry, looked up): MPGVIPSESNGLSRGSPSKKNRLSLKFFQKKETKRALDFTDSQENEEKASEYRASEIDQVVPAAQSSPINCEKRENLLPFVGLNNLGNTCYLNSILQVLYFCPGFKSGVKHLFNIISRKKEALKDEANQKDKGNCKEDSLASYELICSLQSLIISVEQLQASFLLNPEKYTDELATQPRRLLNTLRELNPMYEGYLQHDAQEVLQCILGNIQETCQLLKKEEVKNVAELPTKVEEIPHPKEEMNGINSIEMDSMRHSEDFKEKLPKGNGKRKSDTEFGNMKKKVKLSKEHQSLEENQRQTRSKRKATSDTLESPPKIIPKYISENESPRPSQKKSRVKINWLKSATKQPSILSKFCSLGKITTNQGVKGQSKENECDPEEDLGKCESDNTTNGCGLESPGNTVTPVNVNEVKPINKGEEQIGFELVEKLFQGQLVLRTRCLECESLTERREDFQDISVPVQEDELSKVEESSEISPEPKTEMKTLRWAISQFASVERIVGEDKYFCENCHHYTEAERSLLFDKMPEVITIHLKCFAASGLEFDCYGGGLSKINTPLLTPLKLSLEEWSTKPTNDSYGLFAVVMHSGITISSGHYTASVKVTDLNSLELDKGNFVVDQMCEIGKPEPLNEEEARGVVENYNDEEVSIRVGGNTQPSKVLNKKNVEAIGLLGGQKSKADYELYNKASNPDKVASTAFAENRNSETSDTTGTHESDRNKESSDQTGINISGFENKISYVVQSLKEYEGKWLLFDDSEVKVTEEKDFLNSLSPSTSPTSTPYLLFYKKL
Chain of Ubiquitin carboxyl-terminal hydrolase 1/WD repeat-containing protein 48 (Q8TAF3 whole entry, looked up): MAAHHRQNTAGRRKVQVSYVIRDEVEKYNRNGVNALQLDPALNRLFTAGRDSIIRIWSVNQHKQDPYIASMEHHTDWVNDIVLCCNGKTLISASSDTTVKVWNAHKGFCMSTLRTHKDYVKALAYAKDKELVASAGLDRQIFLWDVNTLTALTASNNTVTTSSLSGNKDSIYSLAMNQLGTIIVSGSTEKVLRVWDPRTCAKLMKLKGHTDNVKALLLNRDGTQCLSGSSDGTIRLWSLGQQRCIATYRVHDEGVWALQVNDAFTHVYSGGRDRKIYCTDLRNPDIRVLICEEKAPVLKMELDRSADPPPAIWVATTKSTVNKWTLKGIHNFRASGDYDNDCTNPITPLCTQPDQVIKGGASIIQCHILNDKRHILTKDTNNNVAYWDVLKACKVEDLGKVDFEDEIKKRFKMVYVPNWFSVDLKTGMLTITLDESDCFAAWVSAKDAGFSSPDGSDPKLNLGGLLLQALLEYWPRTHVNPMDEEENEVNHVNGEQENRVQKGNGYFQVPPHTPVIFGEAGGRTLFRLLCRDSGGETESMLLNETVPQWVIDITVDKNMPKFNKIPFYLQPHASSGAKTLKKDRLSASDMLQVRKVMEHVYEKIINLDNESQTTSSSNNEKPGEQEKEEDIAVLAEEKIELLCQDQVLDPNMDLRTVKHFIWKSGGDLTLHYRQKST

Q: `OCCN1CCN(CC/C=C2/c3ccccc3Sc3ccc(C(F)(F)F)cc32)CC1` [Fluphenthixol] was tested. Which IC50 did it give?
A: Its IC50 is 7 µM.

From BindingDB's records for doi:10.1021/acs.jmedchem.6b00596 (University of Connecticut Health Center, 2016)
